From patent publication US20030186339A1, “Individualization of therapy with antibiotic agents” (McGill University, priority 2001, published 2003)
Read-outs that look alike come from different tables or passages of the source. Marks after values point to notes of the source that are not given here.

Assays:
[1] = cited from earlier work
AAMU-Ab = experiment: Competitive antigen ELISA, cross-reactivity of AAMU-Ab; format: binding, rabbit; settings: for % Cross-Reaction AAMU-Ab: competitive antigen ELISA, 0 = absence of inhibition or inhibition no higher than 40% at highest concentration tested (5×10^−3 M)
Protocol: (§1) Competitive Antigen ELISA
(§2) Buffers and water without additives are filtered through millipore filters and kept for 1 week. BSA, antibodies, Tween™ 20 and horse radish peroxidase conjugates are added to these buffers and water just prior to use. Urine samples are usually collected 4 hours after drinking a cup of coffee (instant or brewed with approximately 100 mg of caffeine per cup) and stored at −80° C. The urine samples are diluted 10 times with sodium phosphate buffer (620 mosm, pH 7.50) and are subsequently diluted with water to give concentrations of AAMU and 1X no higher than 3×10^−6 M in the ELISA. All the pipettings are done with an eight-channel pipette, except those of the antibody and sample solutions. Starting with the last well, 100 μL of a carbonate buffer (100 mM, pH 9.6) containing 2.5 μg mL-1 antibodies are added to each well. After 90 min. at room temperature, the wells are washed three times with […] of TPB: isotonic sodium phosphate buffer (310 mosm, pH 7.50) containing 0.05% Tween™ 20.
(§3) After the initial wash, unoccupied sites are blocked by incubation for 90 min. at room temperature with 100 μL TBP containing 3% BSA. The wells are washed four times with 100 μL TPB. […] The microplate is gently shaken with an orbital shaker at room temperature for 3-4 hours. The wells are washed three times with 100 μL TPB containing 1% BSA and three times with water containing 0.05% Tween™ 20. To the washed plate is added 150 μL of a substrate buffer composed of citric acid (25 mM) and sodium phosphate dibasic buffer (50 mM, pH 5.0) containing 0.06% hydrogen peroxide and 0.04% o-phenylenediamine hydrochloride.
(§4) Buffers and water without additives were filtered through millipore filters and kept for 1 week. BSA, antibodies, Tween™ 20 and horse radish peroxidase conjugates were added to these buffers and water just prior to use. Urine samples were usually collected 4 hours after drinking a cup of coffee (instant or brewed with approximately 100 mg of caffeine per cup) and stored at −80° C. They were diluted 10 times with sodium phosphate buffer (620 mosm, pH 7.50) and were subsequently diluted with water to give concentrations of AAMU and 1X no higher than 3×10^−6 M in the ELISA. All the pipettings were done with an eight-channel pipette, except those of the antibody and sample solutions. Starting with the last well, 100 μL of a carbonate buffer (100 mM, pH 9.6) containing 2.5 μg mL-1 antibodies was pipetted. After 90 min. at room temperature, the wells were washed three times with 100 μL of TPB: isotonic sodium phosphate buffer (310 mosm, pH 7.50) containing 0.05% Tween™ 20.
(§5) After the initial wash, unoccupied sites were blocked by incubation for 90 min. at room temperature with […] TBP containing 3% BSA. The wells were washed four times with 100 μL TPB. […] The microplate was gently shaken with an orbital shaker at room temperature for 3-4 hours. The wells were washed three times with 100 μL with TPB containing 1% BSA and three times with water containing 0.05% Tween™ 20. To the washed plate was added 150 μL of a substrate buffer composed of citric acid (25 mM) and sodium phosphate dibasic buffer (50 mM, pH 5.0) containing 0.06% hydrogen peroxide and 0.04% o-phenylenediamine hydrochloride. After 20 min. at room temperature with shaking, the reaction was stopped with 50 μL of 2.5 N HCl.
(§6) The cross reactivities of AAMU-Ab and 1X-Ab were tested using a wide variety of caffeine metabolites and structural analogs (Table 2 below).

1X-Ab = experiment: Competitive antigen ELISA, cross-reactivity of 1X-Ab; format: binding, rabbit; settings: for % Cross-Reaction 1X-Ab: competitive antigen ELISA, 0 = absence of inhibition or inhibition no higher than 40% at highest concentration tested (5×10^−3 M)
Protocol: as §1, §2, §3, §4, §5, §6

[2] = healthy volunteers; cited from earlier work
S. pneumoniae = settings: once a day for 10 days, acute bacterial exacerbation of chronic bronchitis; cited from earlier work
[3] = cited from earlier work; remark: listed apart in the source

| Compound | % Cross-Reaction AAMU-Ab (AAMU-Ab) | % Cross-Reaction 1X-Ab (1X-Ab) [%] | other results |
| --- | --- | --- | --- |
| CC1(C)S[C@@H]2[C@H](NC(=O)Cc3ccccc3)C(=O)N2[C@H]1C(=O)O.CC1(C)S[C@@H]2[C@H](NC(=O)Cc3ccccc3)C(=O)N2[C@H]1C(=O)O.c1ccc(CNCCNCc2ccccc2)cc1 [Benzathine penicillin G] |  |  | duration of low sustained serum levels of penicillin G ([1]; human, in vivo): 1-3 weeks |
| C[C@H]1c2cccc(O)c2C(=O)C2=C(O)[C@]3(O)C(=O)C(C(N)=O)=C(O)[C@@H](N(C)C)[C@@H]3[C@@H](O)[C@@H]21 [Doxycycline] |  |  | serum half-life ([1]; human, in vivo): 17 to 20 h |
| Cn1c(=O)[nH]c2ncn(C)c2c1=O [1,7-Dimethyl Xanthine (Paraxanthine), 1,7-Dimethyl Xanthine] | 0% | 0.5 |  |
| Cn1cnc2c1c(=O)[nH]c(=O)n2C [3,7-Dimethyl Xanthine (Theobromine), 3,7-Dimethyl Xanthine] | 0% | 0 |  |
| O=c1[nH]cnc2nc[nH]c12 [Hypoxanthine] | 0% | 0 |  |
| Cn1c(=O)[nH]c2[nH]c(=O)n(C)c2c1=O [1,7-Dimethyluric acid] | 0% | 0 |  |
| O=c1[nH]c(=O)c2[nH]cnc2[nH]1 [Xanthine] | 0^a % | 0 |  |
| CC(=O)Nc1c(N)n(C)c(=O)[nH]c1=O [5-Acetamino-6-amino-1-methyluracil] | 100% | 0 | IC50 (AAMU-Ab; read-out: concentration required for 50% inhibition in the competitive antigen ELISA, AAMU-Ab, AAMU-HRP conjugate): 1.5 µM |
| CC(=O)Nc1c(N)n(C)c(=O)n(C)c1=O [5-Acetamino-6-amino-1,3-dimethyluracil] | 0% | 0 |  |
| Cc1nc2[nH]c(=O)[nH]c(=O)c2[nH]1 [8-Methyl Xanthine] | 0% | 0 |  |
| CC(=O)Nc1c(N)[nH]c(=O)[nH]c1=O [5-Acetamino-6-amino-uracil] | 0.6% | 0 |  |
| Cc1c(F)c(N2CCNC(C)C2)cc2c1c(=O)c(C(=O)O)cn2C1CC1 (stereo not drawn) [Grepafloxacin, grepafloxacin] |  |  | effect on QTc interval [2]: Prolongation of the QTc Intervals has been observed; effectiveness against S. pneumoniae, 400 mg per day vs 600 mg per day (S. pneumoniae): may be less effective; time to peak plasma drug concentration after dosing ([1]; human, in vivo): 2 to 3 h; time to steady state concentrations ([1]; once-a-day dosing): ≤ 7 days; bioavailability ([1]; oral): approximately 70% |
| O=c1cc[nH]c(=O)[nH]1 [Uracil] | 0% | 0 |  |
| Cn1c(=O)c2[nH]cnc2n(C)c1=O [1,3-Dimethyl Xanthine (Theophylline), 1,3-Dimethyl Xanthine] | 0% | 0.2 |  |
| Cn1c(=O)c2c(ncn2C)n(C)c1=O [1,3,7-Trimethyl Xanthine (Caffeine), 1,3,7-Trimethyl Xanthine] | 0% | 0 |  |
| O=C(N[C@H](CO)[C@H](O)c1ccc([N+](=O)[O-])cc1)C(Cl)Cl [Chloramphenicol] |  |  | CSF concentrations as % of serum levels ([1]; human, in vivo): 30-50% |
| Nc1ccc(S(=O)(=O)c2ccc(N)cc2)cc1 [dapsone] |  |  | adverse reactions to dapsone ([3]; fast acetylators): 17%; adverse reactions to dapsone ([3]; slow acetylators): 46% |
| Cn1c(=O)[nH]c2nc[nH]c2c1=O [1-Methyl Xanthine (1X), 1-Methyl Xanthine] | 0% | 100 | IC50 (1X-Ab; read-out: concentration required for 50% inhibition in the competitive antigen ELISA, 1X-Ab, 1X-HRP conjugate): 10 µM |
| O=c1[nH]c(=O)c2[nH]c(=O)[nH]c2[nH]1 [Uric acid] | 0% | 0 |  |
| Cn1cnc2[nH]c(=O)[nH]c(=O)c21 [7-Methyl Xanthine] | 0% | 0 |  |
| Cn1c(=O)[nH]c(=O)c2[nH]cnc21 [3-Methyl Xanthine] | 0% | 0 |  |
| Nc1nc2nc[nH]c2c(=O)[nH]1 [Guanine] | 0% | 0 |  |
| Cn1c(=O)[nH]c2[nH]c(=O)[nH]c2c1=O [1-Methyluric acid] | 0% | 11 |  |
